Data on 3 molecules can be found in paper doi:10.1101/2025.09.18.677102, “Genomic plasticity drives olfactory adaptation in a pest fly” (bioRxiv, 2025).

This assay addresses T1, DsuzOr22a (Drosophila suzukii, UniProt A0AB39ZTG6).
T1 construct: gene LOC108019602; full-length cDNA in pJFRC81 (GFP removed), UAS line expressed in D. melanogaster ab3A empty neuron (Or22ab-Gal4); with Odorant receptor coreceptor (Drosophila melanogaster, endogenous to the host neuron)
T1 sequence (A0AB39ZTG6 1-397): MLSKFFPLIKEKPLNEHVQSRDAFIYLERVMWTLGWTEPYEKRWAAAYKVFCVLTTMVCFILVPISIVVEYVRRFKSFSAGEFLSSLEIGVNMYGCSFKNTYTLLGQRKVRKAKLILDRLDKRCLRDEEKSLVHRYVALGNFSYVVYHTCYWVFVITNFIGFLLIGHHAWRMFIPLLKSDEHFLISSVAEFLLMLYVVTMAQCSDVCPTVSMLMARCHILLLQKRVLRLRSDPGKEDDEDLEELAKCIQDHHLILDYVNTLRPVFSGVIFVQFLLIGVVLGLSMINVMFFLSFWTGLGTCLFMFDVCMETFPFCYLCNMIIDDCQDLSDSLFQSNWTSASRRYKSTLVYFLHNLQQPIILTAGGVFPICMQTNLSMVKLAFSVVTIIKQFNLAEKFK
T1 sequence (Q9VNB5 1-486 partner): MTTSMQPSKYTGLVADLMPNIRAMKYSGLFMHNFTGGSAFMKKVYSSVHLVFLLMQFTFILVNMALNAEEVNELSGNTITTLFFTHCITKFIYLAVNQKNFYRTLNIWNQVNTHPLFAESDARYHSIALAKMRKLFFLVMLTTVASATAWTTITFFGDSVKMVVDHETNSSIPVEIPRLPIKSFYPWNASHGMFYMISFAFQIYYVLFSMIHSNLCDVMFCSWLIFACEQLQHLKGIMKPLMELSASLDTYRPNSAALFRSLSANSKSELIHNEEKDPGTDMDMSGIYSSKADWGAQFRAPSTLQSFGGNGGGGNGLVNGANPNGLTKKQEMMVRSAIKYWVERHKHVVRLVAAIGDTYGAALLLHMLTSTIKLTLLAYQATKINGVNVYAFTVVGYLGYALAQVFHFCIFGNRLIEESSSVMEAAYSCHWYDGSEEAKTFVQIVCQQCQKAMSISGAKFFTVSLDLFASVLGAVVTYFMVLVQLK
In words: single sensillum recording, empty neuron. The format is cell-based. As to conditions: odorant 10^-4 dilution in hexane.

Molecules are shown by their SMILES.

In the case of `CCCCOC(C)=O` [butyl acetate], the “responses (spikes/s)” value is “toward several ripening fruit esters such as isobutyl acetate, butyl acetate, and isoamyl acetate”.
`CC(=O)OCCC(C)C` [isoamyl acetate]: the “responses (spikes/s)” value was “toward several ripening fruit esters such as isobutyl acetate, butyl acetate, and isoamyl acetate”.
As for `CC(=O)OCC(C)C` [isobutyl acetate], for the setting “also dilution series”, the “responses (spikes/s)” value is given as “Or22a, which has shifted its tuning toward several ripening fruit esters such as isobutyl acetate”.
